# Columns and labels:
# FADD−/− Jurkat cells = experiment: Necroptosis inhibition assay, TNF-α-induced necroptosis (CellTiter-Glo 2.0); type: cell-based, human; details: TNF-α 15 ng/mL; for Necroptosis inhibition assay (Rescue %) 1 μM: compound 1 μM; for Necroptosis inhibition assay (Rescue %) 10 μM: compound 10 μM
# Summary of the method: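 Compound is added to cells at final concentrations of 0.1, 1 and 10 μM and left 30 minutes at room temperature. Necroptosis is induced with 15 ng/mL TNF-α, culture continues 20 to 24 hours at 37° C, and ATP-based luminescence reports viability.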
# MLKL [1] = target: T1, MLKL (Homo sapiens, UniProt Q8NB16); experiment: MLKL degradation assay in HepG2 cell line (western blot); type: cell-based; design: endogenous in cells; host or cells: HepG2 or HaCaT; details: cell line not given; for Degradation assay (Degradation %) 1 μM: compound 1 μM; for Degradation assay (Degradation %) 10 μM: compound 10 μM
# T1 sequence (Q8NB16 1-471): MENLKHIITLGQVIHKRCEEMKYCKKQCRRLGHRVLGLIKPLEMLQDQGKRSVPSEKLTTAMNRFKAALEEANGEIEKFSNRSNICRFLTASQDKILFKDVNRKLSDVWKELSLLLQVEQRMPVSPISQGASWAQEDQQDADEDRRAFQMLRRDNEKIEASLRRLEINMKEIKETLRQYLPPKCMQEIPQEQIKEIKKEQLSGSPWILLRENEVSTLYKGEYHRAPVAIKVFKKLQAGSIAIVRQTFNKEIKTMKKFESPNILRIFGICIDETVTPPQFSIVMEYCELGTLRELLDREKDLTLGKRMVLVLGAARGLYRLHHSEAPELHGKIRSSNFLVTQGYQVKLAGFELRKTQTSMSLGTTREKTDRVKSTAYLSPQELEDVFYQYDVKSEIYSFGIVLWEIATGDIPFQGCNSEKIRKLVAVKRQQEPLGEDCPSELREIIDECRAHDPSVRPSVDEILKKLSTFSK
# Summary of the method: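 Chemiluminescent western blot signal reports remaining MLKL protein in HepG2 cells after 20-24 h treatment with compound at a final 1 or 10 μM. Equal protein (10-15 μg, BCA) is loaded per lane.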
# MLKL [2] = target: T1, MLKL; experiment: Measurement of binding affinity with MLKL receptor (competitive binding assay, Kd); design: made in house; host or cells: HEK 293 cell line (T7 phage in E. coli BL21-derived host is also described)
# Summary of the method: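 Competitive displacement of MLKL, expressed in HEK 293 cells and DNA-tagged for qPCR, from immobilized ligand on biotin-blocked beads. Compounds were added from 111× DMSO stocks (final DMSO 0.9%). Kinase left in the eluates was quantified by qPCR to give Kd.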
SMILES,Necroptosis inhibition assay (Rescue %) 1 μM (FADD−/− Jurkat cells; FADD−/− Jurkat cells) [%],Necroptosis inhibition assay (Rescue %) 10 μM (FADD−/− Jurkat cells; FADD−/− Jurkat cells) [%],Degradation assay (Degradation %) 1 μM (MLKL [1]) [%],Degradation assay (Degradation %) 10 μM (MLKL [1]) [%],Kd (MLKL [2]) [nM],Necroptosis inhibition assay (Rescue %) 1 μM (FADD−/− Jurkat cells) [%],Necroptosis inhibition assay (Rescue %) 10 μM (FADD−/− Jurkat cells) [%]
"Nc1ncc(-c2cnn(C3CCN(C(=O)CCC4CCN(C(=O)C5CCN(c6ccc7c(c6)C(=O)N(C6CCC(=O)NC6=O)C7=O)CC5)CC4)CC3)c2)nc1C(=O)O[C@@H](C(=O)Nc1ccc(F)cc1)c1ccccc1 (stereo partly drawn) [TDH-418, (R)-2-((4-fluorophenyl)amino)-2-oxo-1-phenylethyl 3-amino-6-(1-(1-(3-(1-(1-(2-(2,6-dioxopiperidin-3-yl)-1,3-dioxoisoindolin-5-yl)piperidine-4-carbonyl)piperidin-4-yl)propanoyl)piperidin-4-yl)-1H-pyrazol-4-yl)pyrazine-2-carboxylate]",28.11,17.31,79.05,58.33,4,–,–
"Nc1ncc(-c2cnn(C3CCN(C(=O)C4CCN(c5ccc6c(c5)C(=O)N(C5CCC(=O)NC5=O)C6=O)CC4)CC3)c2)nc1C(=O)OC(C(=O)Nc1ccc(F)cc1)c1ccccc1 (stereo not shown) [TDH-280, 2-((4-fluorophenyl)amino)-2-oxo-1-phenylethyl 3-amino-6-(1-(1-(1-(2-(2,6-dioxopiperidin-3-yl)-1,3-dioxoisoindolin-5-yl)piperidine-4-carbonyl)piperidin-4-yl)-1H-pyrazol-4-yl)pyrazine-2-carboxylate]",–,–,53.99,39.22,9.3,33.16,19.54
"Nc1ncc(-c2cnn(C3CCN(C(=O)COCCOCCNC(=O)CNc4ccc5c(c4)C(=O)N(C4CCC(=O)NC4=O)C5=O)CC3)c2)nc1C(=O)O[C@@H](C(=O)Nc1ccc(F)cc1)c1ccccc1 (stereo partly drawn) [TDH-191, (R)-2-((4-fluorophenyl)amino)-2-oxo-1-phenylethyl 3-amino-6-(1-(1-(2-(2-(2-(2-((2-(2,6-dioxopiperidin-3-yl)-1,3-dioxoisoindolin-5-yl)amino)acetamido)ethoxy)ethoxy)acetyl)piperidin-4-yl)-1H-pyrazol-4-yl)pyrazine-2-carboxylate]",–,–,44.99,5.25,4.9,77.85,49.93
"Nc1ncc(-c2cnn([C@@H]3CCN(CCOCCOCCNC(=O)CNc4ccc5c(c4)C(=O)N(C4CCC(=O)NC4=O)C5=O)C3)c2)nc1C(=O)OC(C(=O)Nc1ccc(F)cc1)c1ccccc1 (stereo partly drawn) [TDH-268, 2-((4-fluorophenyl)amino)-2-oxo-1-phenylethyl 3-amino-6-(1-((3R)-1-(2-(2-(2-(2-((2-(2,6-dioxopiperidin-3-yl)-1,3-dioxoisoindolin-5-yl)amino)acetamido)ethoxy)ethoxy)ethyl)pyrrolidin-3-yl)-1H-pyrazol-4-yl)pyrazine-2-carboxylate]",–,–,7.05,35.64,6.9,21.45,51.22
"Nc1ncc(-c2cnn(C3CCN(CCCCCCNC(=O)COc4ccc5c(c4)C(=O)N(C4CCC(=O)NC4=O)C5=O)CC3)c2)nc1C(=O)O[C@@H](C(=O)Nc1ccc(F)cc1)c1ccccc1 (stereo partly drawn) [TDH-165, (R)-2-((4-fluorophenyl)amino)-2-oxo-1-phenylethyl 3-amino-6-(1-(1-(6-(2-((2-(2,6-dioxopiperidin-3-yl)-1,3-dioxoisoindolin-5-yl)oxy)acetamido)hexyl)piperidin-4-yl)-1H-pyrazol-4-yl)pyrazine-2-carboxylate]",–,–,62.49,61.44,0.9,52.37,4.66
"Nc1ncc(-c2cnn(C3CCN(C(=O)CC4CCN(C(=O)C5CCN(c6cccc7nnn(C8CCC(=O)NC8=O)c(=O)c67)CC5)CC4)CC3)c2)nc1C(=O)O[C@@H](C(=O)Nc1ccc(F)cc1)c1ccccc1 (stereo partly drawn) [TDH-412, (R)-2-((4-fluorophenyl)amino)-2-oxo-1-phenylethyl 3-amino-6-(1-(1-(2-(1-(1-(3-(2,6-dioxopiperidin-3-yl)-4-oxo-3,4-dihydrobenzo[d][1,2,3]triazin-5-yl)piperidine-4-carbonyl)piperidin-4-yl)acetyl)piperidin-4-yl)-1H-pyrazol-4-yl)pyrazine-2-carboxylate]",24.36,29.48,72.66,72.89,2.5,–,–
"Nc1ncc(-c2cnn(C3CCN(C4CC5(CCN(CC6CCN(C(=O)c7ccc8c(N9CCC(=O)NC9=O)coc8c7)CC6)CC5)C4)CC3)c2)nc1C(=O)O[C@@H](C(=O)Nc1ccc(F)cc1)c1ccccc1 [TDH-553, (R)-2-((4-fluorophenyl)amino)-2-oxo-1-phenylethyl 3-amino-6-(1-(1-(7-((1-(3-(2,4-dioxotetrahydropyrimidin-1(2H)-yl)benzofuran-6-carbonyl)piperidin-4-yl)methyl)-7-azaspiro[3.5]nonan-2-yl)piperidin-4-yl)-1H-pyrazol-4-yl)pyrazine-2-carboxylate]",58.63,−20.56,84.21,91.57,0.31,–,–
"Nc1ncc(-c2cnn(C3CCN(CCOC4CCN(C(=O)C5CCN(c6ccc7c(c6)C(=O)N(C6CCC(=O)NC6=O)C7=O)CC5)CC4)CC3)c2)nc1C(=O)OC(C(=O)Nc1ccc(F)cc1)c1ccccc1 (stereo not shown) [TDH-248, 2-((4-fluorophenyl)amino)-2-oxo-1-phenylethyl 3-amino-6-(1-(1-(2-((1-(1-(2-(2,6-dioxopiperidin-3-yl)-1,3-dioxoisoindolin-5-yl)piperidine-4-carbonyl)piperidin-4-yl)oxy)ethyl)piperidin-4-yl)-1H-pyrazol-4-yl)pyrazine-2-carboxylate]",–,–,47.44,14.59,8.5,72.38,51.46
"Nc1ncc(-c2cnn(C3CCN(C(=O)CC4CCN(C(=O)CNc5ccc6nnn(C7CCC(=O)NC7=O)c(=O)c6c5)CC4)CC3)c2)nc1C(=O)O[C@@H](C(=O)Nc1ccc(F)cc1)c1ccccc1 (stereo partly drawn) [TDH-405, (R)-2-((4-fluorophenyl)amino)-2-oxo-1-phenylethyl 3-amino-6-(1-(1-(2-(1-((3-(2,6-dioxopiperidin-3-yl)-4-oxo-3,4-dihydrobenzo[d][1,2,3]triazin-6-yl)glycyl)piperidin-4-yl)acetyl)piperidin-4-yl)-1H-pyrazol-4-yl)pyrazine-2-carboxylate]",36.97,37.28,70.59,64.30,3.2,–,–
"Nc1ncc(-c2cnn([C@@H]3CCN(CC4CCN(C(=O)CNc5ccc6c(c5)C(=O)N(C5CCC(=O)NC5=O)C6=O)CC4)C3)c2)nc1C(=O)OC(C(=O)Nc1ccc(F)cc1)c1ccccc1 (stereo partly drawn) [TDH-286, 2-((4-fluorophenyl)amino)-2-oxo-1-phenylethyl 3-amino-6-(1-((3R)-1-((1-((2-(2,6-dioxopiperidin-3-yl)-1,3-dioxoisoindolin-5-yl)glycyl)piperidin-4-yl)methyl)pyrrolidin-3-yl)-1H-pyrazol-4-yl)pyrazine-2-carboxylate]",–,–,71.83,71.94,12,88.45,79.75
"Nc1ncc(-c2cnn(C3CCN(CCCN4CCN(C(=O)COc5ccc6c(c5)C(=O)N(C5CCC(=O)NC5=O)C6=O)CC4)CC3)c2)nc1C(=O)N[C@@H](C(=O)Nc1ccc(F)cc1)c1ccccc1 (stereo partly drawn) [TDH-492, 3-amino-6-(1-(1-(3-(4-(2-((2-(2,6-dioxopiperidin-3-yl)-1,3-dioxoisoindolin-5-yl)oxy)acetyl)piperazin-1-yl)propyl)piperidin-4-yl)-1H-pyrazol-4-yl)-N-((R)-2-((4-fluorophenyl)amino)-2-oxo-1-phenylethyl)pyrazine-2-carboxamide]",10.33,4.12,13.74,14.89,39,–,–

# Source: US20240252488A1 (KOREA RESEARCH INSTITUTE OF CHEMICAL TECHNOLOGY, priority 2020, published 2024)
